# Reference: patent US11236078B2, “Heterocyclic inhibitors of the sodium channel” (priority 2014, dated 2022)
# Columns and labels:
# Type in all cases: cell-based
# human Nav1.7 (hNav1.7) [1] = target: T1, human Nav1.7 (hNav1.7) (Homo sapiens, UniProt Q15858); assay: hNav1.7 slow inactivation block, automated patchclamp; conditions: HEK 293F cells stably expressing hNav1.7, slow inactivation induced in approximately 50% of channels
# T1 construct: expressed in transfected cells
# Description: (§1) The generation of HEK 293F cell lines stably expressing human Nav1.7 (h Nav1.7), human Nav1.5 (hNav1.5) and rat Nav1.2 (r Nav1.2) was achieved by subcloning SCN9A, SCN5A, and SCN2A genes into inducible expression vectors followed by transfection into target cells using standard techniques. In the case of h Nav1.7, an expression vector encoding the human Navβ1 auxiliary subunit gene, SCN1B, was co-transfected with the expression vector bearing the SCN9A gene. Clones were selected using appropriate selection agents (0.3 mg/mL Zeocin and 0.8 mg/mL Geneticin) and maintained in Dulbecco's Modified Eagle medium, 10% fetal bovine serum, 1% non-essential amino acids to ˜80% confluence at 37° C. in a humidified incubator with 95% atmosphere and 5% CO2.
# (§2) On the day of each experiment, cells that were grown to 80% confluence in a T75 flask were harvested for use on PatchXpress (Molecular Devices, CA, USA). Following a recovery period at 37° C. in a humidified incubator with 95% atmosphere and 5% CO2 in Dulbecco's Modified Eagle Medium, the media was replaced with an external recording solution containing (in mM): 90 TEACl, 50 NaCl, 1.8 CaCl2, 1 MgCl2, 10 HEPES, 10 glucose, adjusted to pH 7.4 with TEAOH and 300 mOsm with sucrose. The internal recording solution contained (in mM): 129 CsF, 2 MgCl2, 11 EGTA, 10 HEPES, 6 NaCl, 3 Na2ATP adjusted to pH 7.2 with CsOH and 280 mOsm with sucrose. The automated liquid handling facility of PatchXpress dispensed cells and added compound. Modulation of Nav1.7 channels by compounds was assessed by promoting the channels into the inactivated state using a conditioning voltage pulse of variable amplitude, followed by a brief hyperpolarizing pulse with a subsequent depolarized voltage step to measure the current amplitude in the presence and absence of compound.
# (§3) In some cases, the potency of compounds was measured using either the Patchliner automated patch clamp platform (Nanion) or manual patch clamp techniques. Both approaches allowed the compounds to be characterized based upon the ability of a compound to modulate use- and/or state-dependence across human Nav1.7 (hNav1.7), human Nav1.5 (hNav1.5) and rat Nav1.2 (rNav1.2). The potency data is tabulated in Table 2 and is represented by six data fields. Three of the six fields represent potency data measured with the Patchliner automated platform under varying use- and state-dependent electrophysiology protocols similar to the PatchXpress protocols detailed above. For example, the second data column describes the potency of compounds in their ability to block 50% of Nav1.7 channels when the channel is repetitively activated by depolarizing voltage potentials to induce slow inactivation in approximately 50% of channels (Table 2: h Nav1.7: IC50 Slow Inactivation Block, Automated Patchclamp). The next three data fields describe the data generated from manual patchclamp electrophysiology measurements using similar methods to those employed for automated patchclamp studies.
# human Nav1.7 (hNav1.7) [2] = target: T1, human Nav1.7 (hNav1.7); assay: hNav1.7 slow inactivation block, manual patchclamp; conditions: HEK 293F cells stably expressing hNav1.7, slow inactivation induced in approximately 50% of channels
# Description: as §1, §2, §3
# rat Nav1.2 (rNav1.2) = target: T2, rat Nav1.2 (rNav1.2) (Rattus norvegicus, UniProt P04775); assay: rNav1.2 slow inactivation block, manual patchclamp; conditions: HEK 293F cells stably expressing rNav1.2
# T2 construct: expressed in transfected cells
# T2 sequence (P04775 whole entry): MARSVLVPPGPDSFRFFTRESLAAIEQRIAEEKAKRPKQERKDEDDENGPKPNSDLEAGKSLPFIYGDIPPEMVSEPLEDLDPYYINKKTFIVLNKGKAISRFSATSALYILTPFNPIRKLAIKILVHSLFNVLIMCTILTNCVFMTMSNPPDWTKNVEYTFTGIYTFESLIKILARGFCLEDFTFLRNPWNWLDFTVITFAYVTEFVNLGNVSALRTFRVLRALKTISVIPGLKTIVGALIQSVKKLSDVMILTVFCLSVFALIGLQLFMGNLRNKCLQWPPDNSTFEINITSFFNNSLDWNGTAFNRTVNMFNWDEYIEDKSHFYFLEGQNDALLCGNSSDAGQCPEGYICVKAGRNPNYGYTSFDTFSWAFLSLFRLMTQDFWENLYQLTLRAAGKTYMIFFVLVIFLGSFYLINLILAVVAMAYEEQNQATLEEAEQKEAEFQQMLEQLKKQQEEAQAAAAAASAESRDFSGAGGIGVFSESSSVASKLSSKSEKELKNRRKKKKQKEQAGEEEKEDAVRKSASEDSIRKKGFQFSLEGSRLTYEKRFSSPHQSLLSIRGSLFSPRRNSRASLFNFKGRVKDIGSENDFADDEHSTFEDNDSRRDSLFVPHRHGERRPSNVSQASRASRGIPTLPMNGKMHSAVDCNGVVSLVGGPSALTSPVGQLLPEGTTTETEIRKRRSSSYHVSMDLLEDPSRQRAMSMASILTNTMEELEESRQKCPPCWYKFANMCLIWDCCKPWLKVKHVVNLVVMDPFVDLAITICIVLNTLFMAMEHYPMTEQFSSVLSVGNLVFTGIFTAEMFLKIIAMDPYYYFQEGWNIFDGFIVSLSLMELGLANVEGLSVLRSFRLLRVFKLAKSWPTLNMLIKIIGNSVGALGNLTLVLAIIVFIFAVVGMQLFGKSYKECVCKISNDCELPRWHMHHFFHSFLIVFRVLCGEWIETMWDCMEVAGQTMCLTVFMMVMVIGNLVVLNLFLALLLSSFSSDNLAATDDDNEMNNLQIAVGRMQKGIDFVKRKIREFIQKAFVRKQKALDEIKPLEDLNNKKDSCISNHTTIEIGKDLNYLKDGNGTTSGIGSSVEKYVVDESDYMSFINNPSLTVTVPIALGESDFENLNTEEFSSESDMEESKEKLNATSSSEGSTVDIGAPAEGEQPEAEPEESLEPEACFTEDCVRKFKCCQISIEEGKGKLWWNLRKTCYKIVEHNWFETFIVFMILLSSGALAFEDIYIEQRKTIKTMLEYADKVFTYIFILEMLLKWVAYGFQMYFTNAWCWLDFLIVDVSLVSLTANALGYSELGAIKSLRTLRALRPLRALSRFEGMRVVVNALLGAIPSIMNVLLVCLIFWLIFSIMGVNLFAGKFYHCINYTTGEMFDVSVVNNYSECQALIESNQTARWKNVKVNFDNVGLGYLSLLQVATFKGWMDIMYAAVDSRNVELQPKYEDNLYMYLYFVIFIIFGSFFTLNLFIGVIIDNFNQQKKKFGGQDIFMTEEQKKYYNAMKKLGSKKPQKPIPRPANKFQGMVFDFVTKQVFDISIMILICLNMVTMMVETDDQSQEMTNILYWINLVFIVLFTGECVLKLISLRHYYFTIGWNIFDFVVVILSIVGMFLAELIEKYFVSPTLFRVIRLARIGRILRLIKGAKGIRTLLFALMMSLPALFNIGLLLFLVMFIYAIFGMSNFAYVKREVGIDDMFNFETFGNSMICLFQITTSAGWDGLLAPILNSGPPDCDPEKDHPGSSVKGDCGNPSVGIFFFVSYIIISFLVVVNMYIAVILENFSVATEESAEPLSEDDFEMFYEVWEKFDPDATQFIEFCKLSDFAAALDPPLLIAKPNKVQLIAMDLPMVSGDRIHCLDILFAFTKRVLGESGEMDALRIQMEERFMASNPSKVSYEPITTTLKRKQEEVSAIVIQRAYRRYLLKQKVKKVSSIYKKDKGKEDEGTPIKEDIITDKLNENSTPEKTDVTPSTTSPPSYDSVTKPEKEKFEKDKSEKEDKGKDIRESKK
# Description: as §1, §2, §3
# T1 sequence (Q15858 whole entry): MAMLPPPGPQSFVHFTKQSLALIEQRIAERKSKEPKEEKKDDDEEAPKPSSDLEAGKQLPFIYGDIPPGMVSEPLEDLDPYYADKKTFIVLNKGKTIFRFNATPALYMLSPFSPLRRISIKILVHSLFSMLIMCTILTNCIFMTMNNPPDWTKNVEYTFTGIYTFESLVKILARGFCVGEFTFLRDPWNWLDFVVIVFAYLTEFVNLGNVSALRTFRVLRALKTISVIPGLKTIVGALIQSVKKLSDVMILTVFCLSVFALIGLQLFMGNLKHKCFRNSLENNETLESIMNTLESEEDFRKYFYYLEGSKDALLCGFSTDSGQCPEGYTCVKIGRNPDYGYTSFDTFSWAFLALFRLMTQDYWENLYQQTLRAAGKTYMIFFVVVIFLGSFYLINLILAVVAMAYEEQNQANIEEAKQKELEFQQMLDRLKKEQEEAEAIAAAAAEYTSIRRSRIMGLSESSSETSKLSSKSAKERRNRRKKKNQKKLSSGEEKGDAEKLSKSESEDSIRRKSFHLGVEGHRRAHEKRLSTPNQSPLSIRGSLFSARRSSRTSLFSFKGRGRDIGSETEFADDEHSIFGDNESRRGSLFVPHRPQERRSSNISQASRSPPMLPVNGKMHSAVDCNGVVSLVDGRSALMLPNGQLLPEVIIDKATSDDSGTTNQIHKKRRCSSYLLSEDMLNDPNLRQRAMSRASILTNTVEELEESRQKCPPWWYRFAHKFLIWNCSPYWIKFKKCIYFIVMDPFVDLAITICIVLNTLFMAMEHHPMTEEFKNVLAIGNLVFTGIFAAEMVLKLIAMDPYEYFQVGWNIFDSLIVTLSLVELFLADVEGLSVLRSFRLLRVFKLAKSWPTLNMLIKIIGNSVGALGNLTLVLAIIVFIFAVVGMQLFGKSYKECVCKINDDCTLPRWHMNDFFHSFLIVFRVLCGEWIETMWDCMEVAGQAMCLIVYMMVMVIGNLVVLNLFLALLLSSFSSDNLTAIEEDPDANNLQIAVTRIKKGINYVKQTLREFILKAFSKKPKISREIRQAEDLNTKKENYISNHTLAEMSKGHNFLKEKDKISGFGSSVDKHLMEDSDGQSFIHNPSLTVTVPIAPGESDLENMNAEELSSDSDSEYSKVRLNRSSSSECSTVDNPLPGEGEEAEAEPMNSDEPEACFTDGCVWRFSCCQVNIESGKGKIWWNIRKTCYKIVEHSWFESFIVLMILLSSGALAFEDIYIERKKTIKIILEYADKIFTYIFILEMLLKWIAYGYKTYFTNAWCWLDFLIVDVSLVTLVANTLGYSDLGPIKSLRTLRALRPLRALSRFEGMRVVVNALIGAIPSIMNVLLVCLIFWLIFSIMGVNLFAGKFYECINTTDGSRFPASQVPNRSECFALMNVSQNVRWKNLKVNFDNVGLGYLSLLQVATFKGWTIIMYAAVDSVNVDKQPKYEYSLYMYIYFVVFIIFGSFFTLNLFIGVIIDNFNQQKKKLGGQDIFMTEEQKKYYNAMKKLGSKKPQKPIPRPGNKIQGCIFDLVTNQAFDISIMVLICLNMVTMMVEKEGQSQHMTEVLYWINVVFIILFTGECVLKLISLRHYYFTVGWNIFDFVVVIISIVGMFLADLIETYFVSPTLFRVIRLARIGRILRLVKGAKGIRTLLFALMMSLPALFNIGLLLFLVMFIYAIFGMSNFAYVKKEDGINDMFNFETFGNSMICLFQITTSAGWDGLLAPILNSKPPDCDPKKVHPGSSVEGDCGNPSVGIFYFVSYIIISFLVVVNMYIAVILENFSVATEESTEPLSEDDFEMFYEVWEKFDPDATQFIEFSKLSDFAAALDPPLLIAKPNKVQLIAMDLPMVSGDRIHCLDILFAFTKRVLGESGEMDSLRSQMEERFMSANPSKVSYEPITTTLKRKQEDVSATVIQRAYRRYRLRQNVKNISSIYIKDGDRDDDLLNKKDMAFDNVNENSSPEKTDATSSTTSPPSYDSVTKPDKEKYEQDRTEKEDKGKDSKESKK
# T1 sequence (Q07699 19-218 partner): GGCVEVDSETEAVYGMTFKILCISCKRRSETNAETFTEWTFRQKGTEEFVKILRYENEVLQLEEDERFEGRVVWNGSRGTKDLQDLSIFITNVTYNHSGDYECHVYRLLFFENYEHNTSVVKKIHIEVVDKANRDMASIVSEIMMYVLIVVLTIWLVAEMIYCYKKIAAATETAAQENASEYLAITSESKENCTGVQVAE
Compound,IC50 (human Nav1.7 (hNav1.7) [1]) [nM],IC50 (human Nav1.7 (hNav1.7) [2]) [nM],IC50 (rat Nav1.2 (rNav1.2)) [nM]
"O=S(=O)(Nc1nncs1)c1cc(F)c(Oc2cc(C(F)(F)F)cc(C(F)(F)F)c2)cc1F [Compound 8, 4-[3,5-bis(trifluoromethyl)phenoxy]-2,5-difluoro-N-(1,3,4-thiadiazol-2-yl)benzene-1-sulfonamide]",> 32000,–,–
"O=C(NCc1cc(F)c(Oc2ccccc2)cc1F)[C@@H]1CCCN1 [Compound 3, (2S)-N-[(2,5-difluoro-4-phenoxyphenyl)methyl]pyrrolidine-2-carboxamide]",5780,1340,1890
"O=S(=O)(Nc1nccs1)c1ccc(Oc2cc(C(F)(F)F)cc(C(F)(F)F)c2)cc1 [Compound 9, 4-[3,5-bis(trifluoromethyl)phenoxy]-N-(1,3-thiazol-2-yl)benzene-1-sulfonamide]",~29500,–,–
"O=C(Nc1ncns1)c1cc(F)c(Oc2cc(C(F)(F)F)cc(C(F)(F)F)c2)cc1F [Compound 12, 4-[3,5-bis(trifluoromethyl)phenoxy]-2,5-difluoro-N-(1,2,4-thiadiazol-5-yl)benzamide]",> 32000,~5590,> 3200
"O=S(=O)(Nc1nncs1)c1ccc(Oc2cc(C(F)(F)F)cc(C(F)(F)F)c2)cc1 [Compound 7, 4-[3,5-bis(trifluoromethyl)phenoxy]-N-(1,3,4-thiadiazol-2-yl)benzene-1-sulfonamide]",> 32000,–,–
"O=S(=O)(Nc1ncns1)c1ccc(Oc2cc(C(F)(F)F)cc(C(F)(F)F)c2)cc1 [Compound 6, 4-[3,5-bis(trifluoromethyl)phenoxy]-N-(1,2,4-thiadiazol-5-yl)benzene-1-sulfonamide]",–,~39000,> 10000

# Other lines, results leading:
IC50 (human Nav1.7 (hNav1.7) [1]) [nM],IC50 (human Nav1.7 (hNav1.7) [2]) [nM],IC50 (rat Nav1.2 (rNav1.2)) [nM],Compound
~21700,~6930,–,"O=C(c1cc(Oc2cc(F)c(S(=O)(=O)Nc3ncns3)cc2F)cc(C(F)(F)F)c1)N1CCCC1 [Compound 39, 2,5-difluoro-4-{3-[(pyrrolidin-1-yl)carbonyl]-5-(trifluoromethyl)phenoxy}-N-(1,2,4-thiadiazol-5-yl)benzene-1-sulfonamide]"
–,1570,961,"O=C(NCc1cccc(-c2cc(C(F)(F)F)cc(C(F)(F)F)c2)c1)C1CC[C@@H](O)C1 (stereo partly drawn) [Example 64, (3R)-N-({3-[3,5-bis(trifluoromethyl)phenyl]phenyl}methyl)-3-hydroxycyclopentane-1-carboxamide]"
> 32000,4960,4320,"O=C(Nc1nncs1)c1cc(F)c(Oc2cc(C(F)(F)F)cc(C(F)(F)F)c2)cc1F [Compound 15, 4-[3,5-bis(trifluoromethyl)phenoxy]-2,5-difluoro-N-(1,3,4-thiadiazol-2-yl)benzamide]"
> 32000,~16200,–,"CCNC(=O)c1cc(Oc2cc(F)c(S(=O)(=O)Nc3ncns3)cc2F)cc(C(F)(F)F)c1 [Compound 35, 3-{2,5-difluoro-4-[(1,2,4-thiadiazol-5-yl)sulfamoyl]phenoxy}-N-ethyl-5 (trifluoromethyl)benzamide]"
> 32000,> 10000,–,"COCc1nsc(NS(=O)(=O)c2cc(F)c(Oc3cc(OC)cc(C(F)(F)F)c3)cc2F)n1 [Compound 44, 2,5-difluoro-4-[3-methoxy-5-(trifluoromethyl)phenoxy]-N-[3-(methoxymethyl)-1,2,4-thiadiazol-5-yl]benzene-1-sulfonamide]"
–,477,351,"O=C(NCc1cccc(-c2cc(C(F)(F)F)cc(C(F)(F)F)c2)c1)C1CC[C@@H](F)C1 (stereo partly drawn) [Example 65, (3R)-N-({3-[3,5-bis(trifluoromethyl)phenyl]phenyl}methyl)-3-fluorocyclopentane-1-carboxamide]"
–,2680,2370,"O=C(NCc1cccc(-c2cc(C(F)(F)F)cc(C(F)(F)F)c2)c1)C1CC[C@H](O)C1 (stereo partly drawn) [Example 63, (3S)-N-({3-[3,5-bis(trifluoromethyl)phenyl]phenyl}methyl)-3-hydroxycyclopentane-1-carboxamide]"
